Test: Compatibility of desloratadine with excipient materials, N-formyl desloratadine by HPLC
Assay type: physicochemical
Procedure: Compatibility of desloratadine with various excipient materials was determined by mixing the drug and an excipient, then subjecting the mixture to direct exposure for 14 days at 40° C. and 75% relative humidity. The analytical results for the presence of N-formyl desloratadine in the samples (as determined by HPLC) were as tabulated below, where ratios are expressed on a weight basis. Desloratadine and polacrilin resin (AMBERLITE IRP64) were dispersed in water and stirred for 2 hours, isolated by filtration, and then dried at 60° C. until the loss on drying was not more than 10% w/w when tested using an infrared moisture balance at 105° C. Where citric acid was used, the quantity of citric acid was selected to adjust the pH of the dispersion to about 6.5. Where lactose was used, the quantity of lactose is 6 times the weight of other materials, and the lactose is dry mixed with the desloratadine or dried desloratadine-resin mixture.

With `Clc1ccc2c(c1)CCc1cccnc1C2=C1CCNCC1` [Desloratadine, 8-chloro-6,11-dihydro-11-(4-piperidinylidene)-5H-benzo[5,6]-cyclohepta[1,2-b]pyridine] the “% N-Formyl DCL Initial” value (Initial) was “Nil” and the “% N-Formyl DCL After exposure” value (direct exposure for 14 days at 40° C. and 75% relative humidity) was “Nil”.
